Results as given in patent US20140024683A1, “CHLORIDE CHANNEL AND CHLORIDE TRANSPORTER MODULATORS FOR THERAPY IN SMOOTH MUSCLE DISEASES” (priority 2011, published 2014).

Experiments:
rat lung slices = assay: Airway lumen area in peripheral small airways of rat lung slices; conditions: 100 μM NFA; TEA-induced contraction
Experimental: The measurement of airway contraction of a luminal area of small lung airways using the ex vivo rat lung slice method was performed as described (Perez-Zoghbi et al., 2007). The trachea was cannulated with an intravenous catheter, and after the chest cavity was opened, the collapsed lungs were reinflated with 1.3±0.1 ml of 2% agarose (low-gelling temperature) in Sigma-Hanks' Balanced Salt solution (sHBSS), followed by the injection of 0.2±0.1 of air to flush the agarose-sHBSS out of the airways and into the distal alveolar space. Subsequently, a warm (37° C.) solution of gelatin (type A, porcine skin, 300 bloom, 6% in sHBSS) was perfused through the intrapulmonary blood vessels via the pulmonary artery by injecting about 0.3 ml into the right ventricle. The warm agar and gelatin were gelled with cold sHBSS. A single lung lobe was removed and cut into serial sections of about 130 μm thick with a vibratome at about 4° C., starting at the lung periphery. Slices were maintained in DMEM (Invitrogen) at 37° C. and 10% CO2 for up to 3 days. At 37° C., the gelatin in the blood vessel lumen dissolved, leaving the blood vessel lumen empty. Lung slices were mounted in a custom-made perfusion chamber and held in place with a small sheet of nylon mesh. A second cover glass edged with silicone grease was placed over the lung slice. Perfusion of the lung slice was performed using a gravity-fed perfusion system. The volume of the chamber was about 100 μl with a perfusion rate of about 800 μl/min. […] Digital images were recorded in time lapse (30 frames/min). The area of the bronchiole and arteriole lumen was calculated, from each image, by pixel summing using custom-written software. Experiments were performed at room temperature.

[1] = system: guinea pig tracheal rings; assay: Attenuation of the initiation of an acetylcholine contraction by pretreatment, guinea pig tracheal rings; conditions: pretreatment with single agent alone
Experimental: Animal protocols were approved by the Columbia University Animal Care and Use Committee. Male Hartley guinea pigs weighing approximately 400 g were anesthetized with intraperitoneal injection of sodium pentobarbital (100 mg/kg). Trachea were removed and transferred to ice cold Krebs-Henseleit (KH) buffer of the following composition (in mM): NaCl 118, KCl 5.6, CaCl2 0.5, MgSO4 0.24, NaH2PO4 1.3, NaHCO3 25, glucose 5.6, pH 7.4. Epithelial-denuded tracheal rings were prepared using a dissecting microscope. Epithelium was removed by gently passing cotton fibers through the lumen of the tracheal rings. The rings were suspended in 4 mL-water jacketed organ baths (37° C.: Radnoti Glass Technology, Monrovia, Calif.) and connected to a Grass FT03 force transducer (Grass Telefactor, West Warwick, R.I.) using silk sutures. The transducers were coupled to the computer with BioPac hardware and data was collected using Acqknowledge 7.3.3 software (BioPac Systems, Goleta, Calif.). KH buffer was bubbled with a gas mixture of 95% oxygen and 5% carbon dioxide and buffer was exchanged every 15 minutes for 1 hour during equilibration of tracheal rings at 1 g resting tension. […].
Compounds 1 and 13 were tested for their abilities to attenuate the initiation phase of an acetylcholine contraction, as acetylcholine is a natural bronchoconstrictor and prevention of contraction would have clinical utility. […]

[2] = system: human airway smooth muscle; assay: Relaxation of acetylcholine contraction in human airway smooth muscle strips; conditions: 10 μM bumetanide alone
Experimental: Studies using de-identified human tissue were reviewed by the Columbia University Institutional Review Board and deemed not human subjects research. Tissues were obtained from healthy, normal organ donor discarded surgical waste subsequent to lung transplant surgery. Tissues were collected after transplant and placed in DMEM media (GIBCO) and bubbled overnight in 5% carbon dioxide and 95% oxygen at 4° C. The following morning, the smooth muscle tissue was carefully dissected under a dissecting microscope and the epithelium removed. The strips were anchored in the organ bath as described above using KH buffer of the same composition. The strips were allowed to equilibrate for 1 hour with buffer exchanges every 15 minutes and were treated with 10^−6 M tetrodotoxin, 10^−5 M pyrilamine, and 10^−5
M MK571. Strips were contracted with an EC50 dose of acetylcholine (Ach)
This experiment was then repeated with human airway smooth muscle to investigate clinical relevance as a model of bronchospasm in humans.

Row | SMILES | relaxation of TEA-contracted peripheral airway (lumen area) (rat lung slices) | attenuation of the initiation of an acetylcholine contraction [1] | relaxation of acetylcholine contraction [2]
1 | O=C(O)c1cccnc1Nc1cccc(C(F)(F)F)c1 [niflumic acid] | significantly relaxes the peripheral airway contracted with TEA |  | 
2 | CCCCNc1cc(C(=O)O)cc(S(N)(=O)=O)c1Oc1ccccc1 [bumetanide] |  | failed to significantly attenuate a contraction | failed to relax an acetylcholine contraction
